#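 Step 1: Grow cells in 96-well plates. Step 2: Expose to compound for 48 hours at 5 concentrations. Step 3: Interpolate endpoints linearly; if unreached, use highest concentration. GI50: concentration for 50% inhibition of growth.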 Active and inactive are the calls of the source. Rule as the data show it: active = GI50 up to about 1.1 µM and inactive = higher.
# Experiments:
# Assay in all cases: NCI-60 cell line screen, 48 h
# 786-0 = tested on: 786-0
# A498 = tested on: A498
# A549 = tested on: A549
# ACHN = tested on: ACHN
# BT-549 = tested on: BT-549
# CAKI-1 = tested on: CAKI-1
# CCRF-CEM = tested on: CCRF-CEM
# COLO 205 = tested on: COLO 205
# DU-145 = tested on: DU-145
# EKVX = tested on: EKVX
# HCC 2998 = tested on: HCC 2998
# HCT-116 = tested on: HCT-116
# HCT-15 = tested on: HCT-15
# HL-60 = tested on: HL-60
# HOP-62 = tested on: HOP-62
# HOP-92 = tested on: HOP-92
# HT-29 = tested on: HT-29
# Hs-578T = tested on: Hs-578T
# IGROV-1 = tested on: IGROV-1
# K562 = tested on: K562
# KM12 = tested on: KM12
# LOX IMVI = tested on: LOX IMVI
# M14 = tested on: M14
# MCF7 = tested on: MCF7
# MDA-MB-231 = tested on: MDA-MB-231
# MDA-MB-435 = tested on: MDA-MB-435
# MDA-N = tested on: MDA-N
# MOLT-4 = tested on: MOLT-4
# Malme-3M = tested on: Malme-3M
# NCI-H226 = tested on: NCI-H226
# NCI-H23 = tested on: NCI-H23
# NCI-H460 = tested on: NCI-H460
# NCI-H522 = tested on: NCI-H522
# NCI/ADR-RES = tested on: NCI/ADR-RES
# OVCAR-3 = tested on: OVCAR-3
# OVCAR-4 = tested on: OVCAR-4
# OVCAR-5 = tested on: OVCAR-5
# OVCAR-8 = tested on: OVCAR-8
# PC-3 = tested on: PC-3
# RPMI-8226 = tested on: RPMI-8226
# RXF 393 = tested on: RXF 393
# SF-268 = tested on: SF-268
# SF-295 = tested on: SF-295
# SF-539 = tested on: SF-539
# SK-MEL-28 = tested on: SK-MEL-28
# SK-MEL-2 = tested on: SK-MEL-2
# SK-MEL-5 = tested on: SK-MEL-5
# SK-OV-3 = tested on: SK-OV-3
# SN12C = tested on: SN12C
# SNB-19 = tested on: SNB-19
# SNB-75 = tested on: SNB-75
# SR = tested on: SR
# SW-620 = tested on: SW-620
# T47D = tested on: T47D
# TK-10 = tested on: TK-10
# U-251 = tested on: U-251
# UACC-257 = tested on: UACC-257
# UACC-62 = tested on: UACC-62
# UO-31 = tested on: UO-31
smiles,measurement,setting,value
O=C(O)/C=C/C(=O)Nc1cccc2c1-c1ccccc1C2=O,GI50,786-0,9.53 µM (inactive)
same,GI50,A498,53 µM (inactive)
same,GI50,A549,20.9 µM (inactive)
same,GI50,ACHN,17.3 µM (inactive)
same,GI50,BT-549,16.9 µM (inactive)
same,GI50,CAKI-1,4.26 µM (inactive)
same,GI50,CCRF-CEM,4.32 µM (inactive)
same,GI50,COLO 205,13.1 µM (inactive)
same,GI50,DU-145,10.3 µM (inactive)
same,GI50,EKVX,> 90.8 µM (inactive)
same,GI50,HCC 2998,22.2 µM (inactive)
same,GI50,HCT-116,42.8 µM (inactive)
same,GI50,HCT-15,10.2 µM
same,GI50,HL-60,1.28 µM (inactive)
same,GI50,HOP-62,8.75 µM (inactive)
same,GI50,HOP-92,4.06 µM (inactive)
same,GI50,HT-29,22.3 µM (inactive)
same,GI50,Hs-578T,3.76 µM (inactive)
same,GI50,IGROV-1,4.75 µM (inactive)
same,GI50,K562,3.91 µM (inactive)
same,GI50,KM12,16.9 µM (inactive)
same,GI50,LOX IMVI,8.91 µM (inactive)
same,GI50,M14,9.4 µM (inactive)
same,GI50,MCF7,11.3 µM (inactive)
same,GI50,MDA-MB-231,13.3 µM (inactive)
same,GI50,MDA-MB-435,2.85 µM (inactive)
same,GI50,MDA-N,2.99 µM (inactive)
same,GI50,MOLT-4,2.63 µM (inactive)
same,GI50,Malme-3M,8.28 µM (inactive)
same,GI50,NCI-H226,31.2 µM (inactive)
same,GI50,NCI-H23,18.2 µM (inactive)
same,GI50,NCI-H460,3.67 µM (inactive)
same,GI50,NCI-H522,3.25 µM (inactive)
same,GI50,NCI/ADR-RES,10.3 µM (inactive)
same,GI50,OVCAR-3,2.21 µM (inactive)
same,GI50,OVCAR-4,22.9 µM (inactive)
same,GI50,OVCAR-5,> 63.4 µM (inactive)
same,GI50,OVCAR-8,21.6 µM (inactive)
same,GI50,PC-3,5.7 µM (inactive)
same,GI50,RPMI-8226,8.81 µM (inactive)
same,GI50,RXF 393,8.2 µM (inactive)
same,GI50,SF-268,16.3 µM (inactive)
same,GI50,SF-295,3.57 µM (inactive)
same,GI50,SF-539,3.46 µM (inactive)
same,GI50,SK-MEL-28,> 29.6 µM (inactive)
same,GI50,SK-MEL-2,3.56 µM (inactive)
same,GI50,SK-MEL-5,4.39 µM (inactive)
same,GI50,SK-OV-3,22.9 µM (inactive)
same,GI50,SN12C,36.6 µM (inactive)
same,GI50,SNB-19,17.9 µM (inactive)
same,GI50,SNB-75,> 20.6 µM (inactive)
same,GI50,SR,9.2 µM (inactive)
same,GI50,SW-620,5.53 µM (inactive)
same,GI50,T47D,> 51.5 µM (inactive)
same,GI50,TK-10,5.68 µM (inactive)
same,GI50,U-251,5.27 µM (inactive)
same,GI50,UACC-257,3.75 µM (inactive)
same,GI50,UACC-62,6.58 µM (inactive)
same,GI50,UO-31,11.8 µM (inactive)
N/N=C(\c1nc2ccc([N+](=O)[O-])cc2nc1O)C(O)c1ccc(Cl)c(Cl)c1 (stereo not drawn),GI50,786-0,> 100 µM (inactive)
same,GI50,A498,> 100 µM (inactive)
same,GI50,A549,> 100 µM (inactive)
same,GI50,ACHN,54.1 µM (inactive)
same,GI50,BT-549,> 100 µM (inactive)
same,GI50,CAKI-1,> 100 µM (inactive)
same,GI50,CCRF-CEM,15.8 µM (inactive)
same,GI50,COLO 205,> 100 µM (inactive)
same,GI50,DU-145,> 100 µM (inactive)
same,GI50,EKVX,> 100 µM (inactive)
same,GI50,HCC 2998,> 100 µM (inactive)
same,GI50,HCT-116,71.3 µM (inactive)
same,GI50,HCT-15,> 100 µM
same,GI50,HL-60,47.4 µM (inactive)
same,GI50,HOP-62,> 100 µM (inactive)
same,GI50,HOP-92,> 100 µM (inactive)
same,GI50,HT-29,> 100 µM (inactive)
same,GI50,Hs-578T,> 100 µM (inactive)
same,GI50,IGROV-1,> 100 µM (inactive)
same,GI50,K562,96.6 µM (inactive)
same,GI50,KM12,28.3 µM (inactive)
same,GI50,LOX IMVI,33.4 µM (inactive)
same,GI50,M14,> 100 µM (inactive)
same,GI50,MCF7,> 100 µM (inactive)
same,GI50,MDA-MB-231,> 100 µM (inactive)
same,GI50,MDA-MB-435,71.6 µM (inactive)
same,GI50,MDA-N,> 100 µM (inactive)
same,GI50,MOLT-4,22 µM (inactive)
same,GI50,Malme-3M,> 100 µM (inactive)
same,GI50,NCI-H226,> 100 µM (inactive)
same,GI50,NCI-H23,> 100 µM (inactive)
same,GI50,NCI-H460,82.4 µM (inactive)
same,GI50,NCI-H522,13.9 µM (inactive)
same,GI50,NCI/ADR-RES,> 100 µM (inactive)
same,GI50,OVCAR-3,> 100 µM (inactive)
same,GI50,OVCAR-4,> 100 µM (inactive)
same,GI50,OVCAR-5,> 100 µM (inactive)
same,GI50,OVCAR-8,> 100 µM (inactive)
same,GI50,PC-3,> 100 µM (inactive)
same,GI50,RPMI-8226,22.8 µM (inactive)
same,GI50,RXF 393,> 100 µM (inactive)
same,GI50,SF-268,> 100 µM (inactive)
same,GI50,SF-295,> 100 µM (inactive)
same,GI50,SF-539,> 100 µM (inactive)
same,GI50,SK-MEL-28,> 100 µM (inactive)
same,GI50,SK-MEL-2,> 100 µM (inactive)
same,GI50,SK-MEL-5,61.8 µM (inactive)
same,GI50,SK-OV-3,88.1 µM (inactive)
same,GI50,SN12C,> 100 µM (inactive)
same,GI50,SNB-19,> 100 µM (inactive)
same,GI50,SNB-75,> 100 µM (inactive)
same,GI50,SR,61.5 µM (inactive)
same,GI50,SW-620,56.9 µM (inactive)
same,GI50,T47D,67.3 µM (inactive)
same,GI50,TK-10,> 100 µM (inactive)
same,GI50,U-251,> 100 µM (inactive)
same,GI50,UACC-257,> 100 µM (inactive)
same,GI50,UACC-62,> 100 µM (inactive)
same,GI50,UO-31,26.7 µM (inactive)

# — ChEMBL document CHEMBL1201862, “PubChem BioAssay data set” (2004)
